By AC50 is commonly meant the concentration at which the activity in the assay is half-maximal. For orientation: EC50 means the midpoint of the concentration-response curve.

AC50, IC50 and EC50 data for seven compounds are collected here from ChEMBL document CHEMBL1201862, “PubChem BioAssay data set” (2004).

The target of assay [1] is CAAX prenyl protease 2 (Homo sapiens, UniProt Q9Y256). Kind of assay: inhibition of Ras-converting CAAX protease Rce1 – biochemical, yeast membranes, quenched-peptide fluorescence, cherry-pick, dose response (AID 588849).
Sequence of CAAX prenyl protease 2 (Homo sapiens, UniProt Q9Y256) (Q9Y256 whole entry, the tested form may be a part): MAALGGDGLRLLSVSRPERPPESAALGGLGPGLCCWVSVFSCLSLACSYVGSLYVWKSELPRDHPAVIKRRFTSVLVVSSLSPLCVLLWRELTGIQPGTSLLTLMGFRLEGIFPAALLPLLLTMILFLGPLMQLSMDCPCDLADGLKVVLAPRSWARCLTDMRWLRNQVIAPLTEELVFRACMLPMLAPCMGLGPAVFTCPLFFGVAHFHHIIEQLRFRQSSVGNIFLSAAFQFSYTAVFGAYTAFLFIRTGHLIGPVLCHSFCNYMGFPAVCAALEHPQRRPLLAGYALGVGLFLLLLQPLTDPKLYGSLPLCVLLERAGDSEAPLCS
The target in assay [2] is Disintegrin and metalloproteinase domain-containing protein 17 (Homo sapiens, UniProt P78536). Kind of assay: exosite inhibitors of ADAM17, dose response, biochemical (AID 743260).
Sequence of Disintegrin and metalloproteinase domain-containing protein 17 (P78536 whole entry, the tested form may be a part): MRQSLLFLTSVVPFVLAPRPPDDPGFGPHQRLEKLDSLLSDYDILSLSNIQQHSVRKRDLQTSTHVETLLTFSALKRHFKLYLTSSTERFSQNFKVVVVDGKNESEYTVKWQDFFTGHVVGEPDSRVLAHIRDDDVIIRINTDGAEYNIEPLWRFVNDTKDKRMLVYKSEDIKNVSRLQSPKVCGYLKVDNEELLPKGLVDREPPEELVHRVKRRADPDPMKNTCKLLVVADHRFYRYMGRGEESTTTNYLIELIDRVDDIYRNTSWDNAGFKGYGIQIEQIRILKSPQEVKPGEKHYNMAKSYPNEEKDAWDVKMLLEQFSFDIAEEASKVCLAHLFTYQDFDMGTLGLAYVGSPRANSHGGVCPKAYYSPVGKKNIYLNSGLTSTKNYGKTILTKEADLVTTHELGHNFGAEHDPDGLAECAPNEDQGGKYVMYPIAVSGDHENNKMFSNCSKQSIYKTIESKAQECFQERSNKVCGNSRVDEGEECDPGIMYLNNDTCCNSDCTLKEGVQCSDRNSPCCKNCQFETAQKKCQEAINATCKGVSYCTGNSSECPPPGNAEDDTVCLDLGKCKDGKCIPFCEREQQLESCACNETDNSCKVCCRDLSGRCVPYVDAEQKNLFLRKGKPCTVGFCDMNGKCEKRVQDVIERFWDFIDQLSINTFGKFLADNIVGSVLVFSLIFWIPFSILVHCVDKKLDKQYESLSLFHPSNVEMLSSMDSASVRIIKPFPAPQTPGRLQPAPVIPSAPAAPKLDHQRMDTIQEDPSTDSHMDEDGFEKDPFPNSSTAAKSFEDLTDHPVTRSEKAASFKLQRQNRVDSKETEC
Assay [3] is described as follows: inhibition of ADAM10 peptide cleavage – biochemical, FRET peptide substrate, recombinant human ADAM10, selectivity assay for ADAM17 exosite inhibitor project, dose response (AID 743259).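 Note: ADAM10 enzyme cleaving a FRET peptide substrate.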
For assay [4], the system named is HEK293. The assay can be described thus: cells. The settings on record: Homo sapiens.
The subject of assay [5] is HEK293. The assay can be described thus: cells. The settings on record: Homo sapiens. The source holds these as a separate data set.
Assay [6] has as its target Induced myeloid leukemia cell differentiation protein Mcl-1 (Homo sapiens, UniProt Q07820). It is filed as functional.
The target in assay [7] is T1, Replicative DNA helicase DnaB (Mycobacterium tuberculosis, UniProt P9WMR3).
T1 sequence (P9WMR3 whole entry): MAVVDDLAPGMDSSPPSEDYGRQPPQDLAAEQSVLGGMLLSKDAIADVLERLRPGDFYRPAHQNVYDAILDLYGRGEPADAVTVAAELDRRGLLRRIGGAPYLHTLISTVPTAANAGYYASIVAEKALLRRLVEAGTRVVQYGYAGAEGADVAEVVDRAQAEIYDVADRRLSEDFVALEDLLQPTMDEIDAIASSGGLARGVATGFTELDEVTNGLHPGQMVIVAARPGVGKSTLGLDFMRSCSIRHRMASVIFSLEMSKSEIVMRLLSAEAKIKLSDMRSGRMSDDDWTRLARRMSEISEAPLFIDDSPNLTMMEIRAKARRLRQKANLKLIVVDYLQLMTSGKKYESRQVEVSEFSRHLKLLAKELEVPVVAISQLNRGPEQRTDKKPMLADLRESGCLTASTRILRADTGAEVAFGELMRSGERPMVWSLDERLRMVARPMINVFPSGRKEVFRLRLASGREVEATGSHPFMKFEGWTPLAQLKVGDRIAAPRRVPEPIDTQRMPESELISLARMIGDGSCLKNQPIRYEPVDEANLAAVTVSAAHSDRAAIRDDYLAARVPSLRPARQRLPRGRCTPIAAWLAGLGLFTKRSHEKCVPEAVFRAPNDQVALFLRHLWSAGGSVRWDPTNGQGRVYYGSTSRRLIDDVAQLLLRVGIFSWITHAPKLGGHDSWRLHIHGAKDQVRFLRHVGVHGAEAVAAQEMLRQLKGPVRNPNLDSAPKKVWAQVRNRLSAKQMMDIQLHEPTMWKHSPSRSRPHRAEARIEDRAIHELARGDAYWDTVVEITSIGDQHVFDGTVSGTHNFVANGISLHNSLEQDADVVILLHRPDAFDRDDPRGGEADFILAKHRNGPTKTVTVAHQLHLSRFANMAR
Kind of assay: DnaB intein splicing inhibitors, dose response, biochemical, cell-free fluorescence (AID 449749). It is filed as functional.

In a further assay the target is T2, Protein RecA (Mycobacterium tuberculosis, UniProt P9WHJ3).
T2 sequence (P9WHJ3 whole entry): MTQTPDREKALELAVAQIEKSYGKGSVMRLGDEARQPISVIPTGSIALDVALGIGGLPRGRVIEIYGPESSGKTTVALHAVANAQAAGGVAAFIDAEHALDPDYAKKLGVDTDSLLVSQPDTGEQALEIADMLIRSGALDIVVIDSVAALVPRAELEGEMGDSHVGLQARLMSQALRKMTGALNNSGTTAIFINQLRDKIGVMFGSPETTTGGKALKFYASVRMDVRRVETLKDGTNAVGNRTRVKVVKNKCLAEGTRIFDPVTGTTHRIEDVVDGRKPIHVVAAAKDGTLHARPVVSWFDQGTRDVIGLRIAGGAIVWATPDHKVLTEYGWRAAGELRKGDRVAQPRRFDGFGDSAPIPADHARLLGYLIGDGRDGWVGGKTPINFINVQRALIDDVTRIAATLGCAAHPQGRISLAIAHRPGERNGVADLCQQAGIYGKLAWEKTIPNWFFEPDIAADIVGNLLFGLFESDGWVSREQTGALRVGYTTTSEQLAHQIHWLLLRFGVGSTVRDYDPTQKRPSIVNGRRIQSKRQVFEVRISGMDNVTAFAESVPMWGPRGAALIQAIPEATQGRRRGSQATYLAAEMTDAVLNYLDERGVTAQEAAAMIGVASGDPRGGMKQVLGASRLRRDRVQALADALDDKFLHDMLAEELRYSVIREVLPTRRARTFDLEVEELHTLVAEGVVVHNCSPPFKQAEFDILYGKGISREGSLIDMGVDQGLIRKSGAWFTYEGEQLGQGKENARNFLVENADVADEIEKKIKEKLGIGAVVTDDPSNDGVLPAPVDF
The assay can be described thus: Fluorescence Cell-Free Homogeneous Dose Retest to Identify Inhibitors of RecA-Intein Splicing Activity. [Related pubchem assays (depositor defined):AID2097, AID2223, AID489010, AID492950]. It is filed as functional.

The target in the next assay is Paired box protein Pax-8 (Homo sapiens, UniProt Q06710). Kind of assay: PAX8 transcriptional activity inhibition in RMG-I – RMG-I cells, luciferase, cherry-pick, dose response (AID 687027).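 Note: luciferase reporter driven by Pax8 target thyroperoxidase promoter measured by SteadyGlo luminescence.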 It is filed as functional, cell-based.
Sequence of Paired box protein Pax-8 (Q06710 whole entry): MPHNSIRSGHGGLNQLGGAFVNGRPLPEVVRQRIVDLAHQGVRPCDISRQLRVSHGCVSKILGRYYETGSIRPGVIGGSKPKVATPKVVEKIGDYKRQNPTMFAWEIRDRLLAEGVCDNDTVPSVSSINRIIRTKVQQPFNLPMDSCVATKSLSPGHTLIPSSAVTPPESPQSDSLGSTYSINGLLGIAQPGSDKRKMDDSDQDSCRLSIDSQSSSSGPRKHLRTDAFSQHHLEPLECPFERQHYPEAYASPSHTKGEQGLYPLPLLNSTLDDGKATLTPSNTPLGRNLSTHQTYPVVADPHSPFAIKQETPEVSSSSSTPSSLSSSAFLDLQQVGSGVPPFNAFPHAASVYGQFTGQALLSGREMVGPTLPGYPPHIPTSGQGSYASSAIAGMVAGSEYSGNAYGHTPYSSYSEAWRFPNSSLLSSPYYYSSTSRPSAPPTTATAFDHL
The subject of assay [8] is Streptococcus sp. 'group A'. The assay can be described thus: Streptococcus pyogenes SK(-)GAS viability under kanamycin – luminescence, BacTiterGlo, confirmation, counter-screen for streptokinase expression inhibitor project, dose response (AID 1900). It is filed as functional, organism-based.
A further assay has as its system Streptococcus. Kind of assay: GAS UMAA2166 growth inhibition – luminescence, BacTiterGlo, counter-screen for streptokinase expression inhibitor project, dose response (AID 1915).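 Note: potency for reduction of bacterial viability or growth.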 It is filed as functional, organism-based.
The next assay deals with Beta-galactosidase (Escherichia coli, UniProt Q8VNN2). The assay can be described thus: detection-enzyme interference by beta-gal modulators – biochemical, E. coli enzyme, set 3, artefact control for CCR6 antagonist project, dose response (AID 504712). It is filed as functional.
Sequence of Beta-galactosidase (Q8VNN2 whole entry): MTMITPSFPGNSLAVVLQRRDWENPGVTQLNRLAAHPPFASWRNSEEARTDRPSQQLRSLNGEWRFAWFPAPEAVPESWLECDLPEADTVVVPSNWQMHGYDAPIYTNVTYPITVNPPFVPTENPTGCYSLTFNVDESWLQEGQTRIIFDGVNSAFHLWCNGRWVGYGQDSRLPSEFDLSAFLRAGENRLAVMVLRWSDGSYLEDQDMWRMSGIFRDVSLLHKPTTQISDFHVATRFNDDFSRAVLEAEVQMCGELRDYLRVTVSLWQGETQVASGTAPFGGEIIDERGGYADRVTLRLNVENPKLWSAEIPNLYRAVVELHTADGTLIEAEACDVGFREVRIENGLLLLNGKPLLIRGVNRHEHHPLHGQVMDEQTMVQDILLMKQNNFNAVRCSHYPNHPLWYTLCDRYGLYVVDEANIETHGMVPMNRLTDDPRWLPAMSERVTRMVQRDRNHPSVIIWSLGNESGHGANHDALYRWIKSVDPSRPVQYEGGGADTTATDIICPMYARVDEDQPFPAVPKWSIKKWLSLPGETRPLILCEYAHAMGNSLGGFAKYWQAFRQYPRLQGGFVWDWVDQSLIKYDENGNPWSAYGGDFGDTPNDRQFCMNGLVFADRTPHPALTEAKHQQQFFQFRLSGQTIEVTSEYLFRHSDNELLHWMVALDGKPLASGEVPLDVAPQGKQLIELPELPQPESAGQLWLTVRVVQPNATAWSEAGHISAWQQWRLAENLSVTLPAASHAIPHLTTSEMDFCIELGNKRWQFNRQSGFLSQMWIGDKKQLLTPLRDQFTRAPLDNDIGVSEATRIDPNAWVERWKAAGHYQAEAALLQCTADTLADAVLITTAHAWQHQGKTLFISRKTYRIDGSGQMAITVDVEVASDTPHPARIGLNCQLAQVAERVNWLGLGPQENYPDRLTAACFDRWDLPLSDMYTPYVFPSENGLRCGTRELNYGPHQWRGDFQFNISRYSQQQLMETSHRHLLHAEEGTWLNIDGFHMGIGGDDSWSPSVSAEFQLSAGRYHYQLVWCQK
The target in assay [9] is T3, Short transient receptor potential channel 4 (Mus musculus, UniProt Q9QUQ5).
T3 sequence (Q9QUQ5 whole entry): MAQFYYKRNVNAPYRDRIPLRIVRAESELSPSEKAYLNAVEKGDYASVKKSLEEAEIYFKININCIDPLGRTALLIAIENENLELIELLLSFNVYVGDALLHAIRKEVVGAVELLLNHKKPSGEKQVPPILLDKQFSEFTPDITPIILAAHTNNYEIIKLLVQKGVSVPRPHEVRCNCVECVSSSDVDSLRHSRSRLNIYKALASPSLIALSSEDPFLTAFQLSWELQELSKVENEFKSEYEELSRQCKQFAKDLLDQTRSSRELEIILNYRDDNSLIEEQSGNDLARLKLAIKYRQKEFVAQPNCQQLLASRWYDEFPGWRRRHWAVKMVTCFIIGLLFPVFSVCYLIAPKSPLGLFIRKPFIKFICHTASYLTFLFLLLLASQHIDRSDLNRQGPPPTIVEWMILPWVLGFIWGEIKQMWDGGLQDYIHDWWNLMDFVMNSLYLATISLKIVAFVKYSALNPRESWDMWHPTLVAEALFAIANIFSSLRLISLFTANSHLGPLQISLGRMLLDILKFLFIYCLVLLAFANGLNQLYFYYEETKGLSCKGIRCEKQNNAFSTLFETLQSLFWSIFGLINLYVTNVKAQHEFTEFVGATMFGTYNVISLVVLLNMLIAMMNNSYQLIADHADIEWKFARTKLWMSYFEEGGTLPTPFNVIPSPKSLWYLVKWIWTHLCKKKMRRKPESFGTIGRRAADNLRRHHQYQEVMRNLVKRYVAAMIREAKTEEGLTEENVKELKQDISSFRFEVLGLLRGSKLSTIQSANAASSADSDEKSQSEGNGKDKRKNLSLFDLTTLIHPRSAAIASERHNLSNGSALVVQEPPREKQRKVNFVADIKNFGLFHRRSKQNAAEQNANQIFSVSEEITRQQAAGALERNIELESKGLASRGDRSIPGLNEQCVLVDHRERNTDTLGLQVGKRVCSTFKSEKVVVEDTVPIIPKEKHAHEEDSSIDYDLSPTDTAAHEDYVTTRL
The assay can be described thus: calcium entry via TRPC4 opening agents – cell-based, HEK293 TRPC4/mu-opioid, Fluo-4 calcium, dose response (AID 434937). It is filed as functional.

The target in the next assay is Apelin receptor (Homo sapiens, UniProt P35414). The assay can be described thus: apelin receptor antagonists, arrestin read-out – cell-based, luminescent, enzyme-fragment complementation, selectivity assay for CCR6 antagonist project, SAR follow-up (AID 588359). It is filed as functional.
Sequence of Apelin receptor (P35414 whole entry, the tested form may be a part): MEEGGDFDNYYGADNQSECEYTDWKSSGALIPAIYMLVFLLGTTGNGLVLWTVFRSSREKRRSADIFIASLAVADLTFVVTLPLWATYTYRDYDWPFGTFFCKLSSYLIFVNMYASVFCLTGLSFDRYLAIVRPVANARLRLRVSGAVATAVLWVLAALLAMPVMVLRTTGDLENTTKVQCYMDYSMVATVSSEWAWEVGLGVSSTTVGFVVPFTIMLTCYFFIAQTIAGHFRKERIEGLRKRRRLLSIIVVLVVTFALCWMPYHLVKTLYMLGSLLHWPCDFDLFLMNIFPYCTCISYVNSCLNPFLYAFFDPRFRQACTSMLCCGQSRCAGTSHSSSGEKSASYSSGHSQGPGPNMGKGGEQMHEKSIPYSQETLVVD
Assay [10] addresses Dual specificity protein kinase CLK1 (Homo sapiens, UniProt P49759). Kind of assay: inhibition of human CLK1 activity – biochemical, cherry-picked samples, selectivity assay for Dyrk1A inhibitor project, dose response (AID 588811).
Assay [11] addresses Dual specificity tyrosine-phosphorylation-regulated kinase 1A (Rattus norvegicus, UniProt Q63470). It is filed as biochemical, Homo sapiens.
The next assay addresses T4, Interleukin-8 (Homo sapiens, UniProt P10145).
T4 sequence (P10145 whole entry): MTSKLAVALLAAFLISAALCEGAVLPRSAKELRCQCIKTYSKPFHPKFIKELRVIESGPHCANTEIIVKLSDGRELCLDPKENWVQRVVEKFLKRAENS
Kind of assay: Dose Response confirmation of uHTS small molecule hits for cystic fibrosis induced NFkb Inhibitors in a PAF-induced IL8 counterscreen. The settings on record: read-out: IC50_Mean. It is filed as functional.

For assay [12], the target named is T5, CAAX prenyl protease 2 (Saccharomyces cerevisiae S288c, UniProt Q03530).
T5 sequence (Q03530 whole entry): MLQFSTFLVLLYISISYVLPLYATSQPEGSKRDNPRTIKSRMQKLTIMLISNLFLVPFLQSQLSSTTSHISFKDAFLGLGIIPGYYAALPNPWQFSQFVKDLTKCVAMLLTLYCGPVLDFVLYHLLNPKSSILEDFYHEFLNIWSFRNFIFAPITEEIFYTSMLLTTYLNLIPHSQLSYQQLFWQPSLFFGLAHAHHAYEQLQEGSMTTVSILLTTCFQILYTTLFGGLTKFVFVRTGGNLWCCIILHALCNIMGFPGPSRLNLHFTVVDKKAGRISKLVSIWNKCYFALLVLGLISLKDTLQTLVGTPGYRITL
It is filed as biochemical.

Active and inactive are the calls of the source.

Sequence of Dual specificity protein kinase CLK1 (P49759 whole entry): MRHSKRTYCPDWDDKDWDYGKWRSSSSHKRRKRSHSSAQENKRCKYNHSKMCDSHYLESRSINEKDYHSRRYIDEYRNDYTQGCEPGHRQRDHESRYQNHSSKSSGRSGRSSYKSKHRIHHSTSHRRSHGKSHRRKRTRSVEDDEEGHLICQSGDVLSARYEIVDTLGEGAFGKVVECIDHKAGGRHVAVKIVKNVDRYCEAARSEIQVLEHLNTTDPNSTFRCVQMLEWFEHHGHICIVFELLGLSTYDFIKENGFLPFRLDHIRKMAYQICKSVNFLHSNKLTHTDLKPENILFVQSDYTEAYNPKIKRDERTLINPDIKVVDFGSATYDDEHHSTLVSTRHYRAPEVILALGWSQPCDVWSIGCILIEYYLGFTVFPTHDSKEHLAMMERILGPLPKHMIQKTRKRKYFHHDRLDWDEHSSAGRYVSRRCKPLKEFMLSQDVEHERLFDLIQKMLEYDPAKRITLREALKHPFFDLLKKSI
Sequence of Induced myeloid leukemia cell differentiation protein Mcl-1 (Q07820 whole entry): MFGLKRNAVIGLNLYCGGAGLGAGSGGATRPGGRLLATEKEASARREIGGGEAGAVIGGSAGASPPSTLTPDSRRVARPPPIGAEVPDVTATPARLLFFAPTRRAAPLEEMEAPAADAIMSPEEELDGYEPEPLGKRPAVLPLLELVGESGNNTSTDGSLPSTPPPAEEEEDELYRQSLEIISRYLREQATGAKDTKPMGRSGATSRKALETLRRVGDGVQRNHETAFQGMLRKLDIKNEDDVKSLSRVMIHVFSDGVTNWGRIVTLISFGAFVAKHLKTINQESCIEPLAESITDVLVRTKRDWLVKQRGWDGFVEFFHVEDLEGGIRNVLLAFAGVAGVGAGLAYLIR

Take `O=C(Nc1cccc2ccccc12)c1ccc(OC(=S)N2CCOCC2)cc1`: the AC50 on CAAX prenyl protease 2 [1] was > 100 µM (inactive). For the same compound, the IC50 in [2] and in [3] was > 69.5 µM (inactive) throughout.

Take `CCCCC(=O)NC(=S)Nc1cccc(Cl)c1N1CCCCC1`: the EC50 with HEK293 [4] and in the assay on HEK293 [5] was > 59.7 µM (inactive) in each case.

Regarding `CCN(CC)S(=O)(=O)c1cc(NC(=O)Cn2ncc(Cl)c(Cl)c2=O)ccc1C`, in [6], the IC50 was 4.21 µM (active). Also, the AC50 in assay [7] is 11.8 µM (active); on Paired box protein Pax-8, 4.84 µM (active). Further, the EC50 at Protein RecA was 14.5 µM (active); in the assay with HEK293 [4], > 59.6 µM (inactive); in the assay with HEK293 [5], > 59.6 µM (inactive).

As for `COC(=O)C1=NN(C(=O)c2cccc(Br)c2)C(O)(c2ccc(Cl)cc2)C1` (stereo not given), the EC50 in assay [8] was 2.9 µM (active); in the assay with Streptococcus it was 3.87 µM (active); in assay [9], 5.31 µM (active); at Protein RecA, 13.7 µM (active). Also, the figures for the IC50 on Beta-galactosidase and at Apelin receptor were > 66.6 µM (inactive) and 12.1 µM (active), respectively. Besides, the AC50 in assay [7] is > 380 µM (inactive).

Regarding `CC1Cc2ccccc2N1c1ncnc2nc[nH]c12` (stereo not given), the results for the AC50 in [10] and in [11] were 0.19 µM (active) and 0.811 µM (active), respectively. For the same compound, on Interleukin-8, the IC50 is 10.5 µM (inactive).

As to `COc1cccc(Nc2ncnc3ccccc23)c1`, the AC50 in [10] was 3.94 µM (active); in [11] it was 4.91 µM (active).

For `CCOc1ccc2nc(O)c(CN(CCN3CCOCC3)Cc3nnnn3C(C)(C)CC)cc2c1`, the AC50 was > 100 µM (inactive) on CAAX prenyl protease 2 [12] and 7.54 µM (active) at CAAX prenyl protease 2 [1].
